One data set deals with Phospho GSK3β. Description: Western blot, PI3K/AKT/mTOR pathway inhibition: phospho GSK3β. The data set is classed as cell-based. Particulars: 1 hour treatment; signals quantified using β-actine. The text has this: (§1) Western blot technique was used, using an Odissey Licor equipment to identify the proteins. Phospho AKT, AKT and Phospho GSK3β antibodies were used as first antibodies and anti-mouse 680nm as second antibody. Then, the signals were quantified using β-actine.

In the next data set the test system is AKT. Description: Western blot, PI3K/AKT/mTOR pathway inhibition: total AKT. Type of data set: cell-based. As to conditions: 60 min treatment; signals quantified using β-actine.
Description: as §1

Another data set relates to Phospho AKT. Description: Western blot, PI3K/AKT/mTOR pathway inhibition: phospho AKT. Particulars: 1 hour treatment; signals quantified using β-actine. Type of data set: cell-based.
Description: as §1

Another data set concerns MCF-7 cell line. Description: Cell cycle analysis by flow cytometry (propidium iodide DNA staining). The data set is classed as cell-based. As to conditions: for percentage of cells in each cell cycle phase: G0/G1 / percentage of cells in each cell cycle phase: G2/M / percentage of cells in each cell cycle phase: S: 72 hours of incubation. As for the experimental part:
For the evaluation of the MDN-0088 activity, the MCF-7 cell line was used. The method used was flow cytometry to determine the effect of MDN-0088 on cell cycle. This method of DNA staining utilizes ethanol to fix the cells and permeabilize the membrane, which allows the dye (Propidium Iodide) to enter the cells.
For this purpose, cells were seeded in 6-well plates at 200,000 cells/well. After 24 hours, cells were serum-deprived for 72 hours. Medium was removed and compounds/standards were added in fresh medium at a different concentration (4µL of compound/2mL fresh medium). DMSO concentration was 0.2% in all wells. After 72 hours of incubation (37 °C, 5% CO2), cells were scrapped and centrifuged (1200rpm for 5 min) and washed twice with PBS. 330 µL of cell suspension was placed in a Facs tube and 660 µL ice cold 100% ethanol was added drop-wise to the tube walls. Tubes were mixed by vortexing slowly during addition of ethanol. They were left at […] overnight.
Tubes were centrifuged (1200 rpm for 5 min) to remove ethanol, 4 mL PBS was added and they were washed at 1200 rpm for 5 min. The supernatant was removed and cells were resuspended in DNA staining solution (500 µL PBS/IP 20µg/mL/Rnase 0.2 mg/ml). Data was acquired on a flow cytometer (Accury, BD).
As shown in Table 3 and Figure 1, an increase in G0/G1 and a decrease both in S and G2/M phase were observed. […]
(Flow cytometry measures light scatter and fluorescence of single cells or particles in a stream.)

The test system of a further data set is mice. Particulars: mouse, ip, 50 mg/kg. As for the experimental part: In order to evaluate the in vivo toxicity, mice were intraperitoneal injected with MDN-0088 at 50 mg/kg.

From patent EP3292132B1, “PI3K INHIBITOR COMPOUNDS TO TREAT CANCER” (FUNDACIÓN MEDINA. Centro de Excelencia en Investigación de …, priority 2015, dated 2016) come the findings set out here.

On to `O=c1cc(N2CCOCC2)oc2c(-c3ccccc3)cccc12` [LY294002, reference compound], for which, in the data set with Phospho GSK3β, the “phospho-GSK3 β” value came to 0.042. For the same compound, the AKT total in the data set with AKT stood at 0.61. The compound also displayed a pAKT with Phospho AKT of 0.055.
Take `CCCCCCCC(=O)CCCc1oc(=O)ccc1O[C@@H]1O[C@H](CO)[C@@H](O)[C@H](O)[C@H]1O` [MDN-0088]: the “percentage of cells in each cell cycle phase: G0/G1” value in the data set on MCF-7 cell line (MCF-7, 6.25 µM) was 48.17%; in the data set on MCF-7 cell line (MCF-7, 12.5 µM), 53.49%; in the data set on MCF-7 cell line (MCF-7, 25 µM) it was 56.9%; in the data set with MCF-7 cell line (MCF-7, 50 µM), 62.79%. Besides, the “percentage of cells in each cell cycle phase: G2/M” value with MCF-7 cell line (MCF-7, 6.25 µM) stood at 17.71%; with MCF-7 cell line (MCF-7, 12.5 µM), 15.76%; in the data set with MCF-7 cell line (MCF-7, 25 µM), 14.38%; in the data set with MCF-7 cell line (MCF-7, 50 µM) it was 10.99%. The “percentage of cells in each cell cycle phase: S” value is recorded as 6.09% in the data set on MCF-7 cell line (MCF-7, 6.25 µM); 5.64% with MCF-7 cell line (MCF-7, 12.5 µM); 3.49% with MCF-7 cell line (MCF-7, 25 µM); 2.37% with MCF-7 cell line (MCF-7, 50 µM). Besides, in the data set on MCF-7 cell line (MCF-7, result in words), the “effect on cell cycle” value was “blocks the cell cycle in G0/G1 phase”. Also, in the data set with Phospho GSK3β, the “phospho-GSK3 β” value stood at 0.037. Moreover, the “weight loss or changes in behavior” value with mice (in vivo) is reported as “no weight loss or changes in their behavior”. For the same compound, in the data set with mice, the in vivo toxicity result is “absence of toxicity”. For the same compound, the AKT total in the data set on AKT worked out at 0.58. In the data set with Phospho AKT, this compound showed a pAKT of 0.027.
